Reference: patent US5391540A, “Substituted pyridine compounds” (Rohm and Haas Company, priority 1993, dated 1995)

Tests used:
Assay in all cases: Pre-emergent herbicidal activity (Table A)
Type in all cases: in vivo
Annual Bluegrass = settings: pre-emergence, Anbg, 11.2 kg/ha, 10-14 days, read-out: herbicidal rating (% inhibition)
Method: (§1) Tables A and B summarize results of tests conducted to determine the pre-emergent herbicidal activity of the compounds of this invention. The herbicidal ratings used in Tables A and B were assigned according to a scale based on the percent inhibition of each plant species. The herbicide rating symbols in Tables A and B are defined as follows: […]
(§2) One set of pre-emergent tests was conducted as follows:
(§3) Topsoil was placed in a pan and compacted to a depth of 0.95 to 1.27 cm. from the top of the pan. A predetermined number of seeds of each of several monocotyledonous and dicotyledonous annual plant species and/or vegetative propagules of various perennial plant species were placed on top of the soil. The soil required to level fill a pan after seeding or adding vegetative propagules was weighed into another pan. A known amount of the test compound dissolved or suspended in an organic solvent or water and applied in acetone or water as a carrier was thoroughly mixed with this cover soil, and the herbicide/soil mixture was used as a cover layer for the previously prepared pan. In Table A below the amounts of active ingredient were all equivalent to an application rate of 11.2 kilograms/hectare (kg/ha). After treatment, the pans were moved to a greenhouse bench where they were watered as needed to give adequate moisture for germination and growth.
(§4) Approximately 10-14 days (usually 11 days) after planting and treating, the plants were observed and the results recorded.
(§5) The plant species usually regarded as weeds which were utilized in one set of pre-emergent activity tests, the data for which are shown in Table A, are identified by letter headings printed diagonally above the columns according to the following legend: […]

Indian Mustard = settings: Brassica juncea, pre-emergence, Inmu, 11.2 kg/ha, 10-14 days, read-out: herbicidal rating (% inhibition)
Method: as §1, §2, §3, §4, §5

Wild Buckwheat = settings: Fallopia convolvulus, pre-emergence, Wibw, 11.2 kg/ha, 10-14 days, read-out: herbicidal rating (% inhibition)
Method: as §1, §2, §3, §4, §5

Seedling Johnsongrass = settings: Sorghum halepense, pre-emergence, Sejg, 11.2 kg/ha, 10-14 days, read-out: herbicidal rating (% inhibition)
Method: as §1, §2, §3, §4, §5

Yellow Nutsedge = settings: Cyperus, pre-emergence, Yens, 11.2 kg/ha, 10-14 days, read-out: herbicidal rating (% inhibition)
In short: (§6)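 Seeds or vegetative propagules were set on topsoil compacted to 0.95 to 1.27 cm below the pan rim, then covered with soil thoroughly mixed with a known amount of test compound in acetone or water carrier. Ratings follow a scale of percent inhibition per species.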

Barnyardgrass = settings: Echinochloa crus-galli, pre-emergence, Bygr, 11.2 kg/ha, 10-14 days, read-out: herbicidal rating (% inhibition)
In short: as §6

Velvetleaf = settings: Abutilon theophrasti, pre-emergence, Vele, 11.2 kg/ha, 10-14 days, read-out: herbicidal rating (% inhibition)
In short: as §6

Morningglory = settings: Ipomoea, pre-emergence, Mogl, 11.2 kg/ha, 10-14 days, read-out: herbicidal rating (% inhibition)
In short: as §6

Downy Brome = settings: Bromus tectorum, pre-emergence, Dobr, 11.2 kg/ha, 10-14 days, read-out: herbicidal rating (% inhibition)
In short: as §6

Cocklebur = settings: Xanthium strumarium, pre-emergence, Cobu, 11.2 kg/ha, 10-14 days, read-out: herbicidal rating (% inhibition)
In short: as §6

| Compound | inhibition at 11200 g/ha (Annual Bluegrass) [%] | inhibition at 11200 g/ha (Indian Mustard) [%] | inhibition at 11200 g/ha (Wild Buckwheat) [%] | inhibition at 11200 g/ha (Seedling Johnsongrass) [%] | inhibition at 11200 g/ha (Yellow Nutsedge) [%] | inhibition at 11200 g/ha (Barnyardgrass) [%] | inhibition at 11200 g/ha (Velvetleaf) [%] | inhibition at 11200 g/ha (Morningglory) [%] | inhibition at 11200 g/ha (Downy Brome) [%] | inhibition at 11200 g/ha (Cocklebur) [%] |
| --- | --- | --- | --- | --- | --- | --- | --- | --- | --- | --- |
| COC(=O)c1c(OC)nc(C(F)(F)F)c(C2=NCCCO2)c1CC(C)C [Compound 99] | 75 to 100 | 75 to 100 | 25 to 49 | 75 to 100 | 0 to 24 | 75 to 100 | 75 to 100 | 50 to 74 | 75 to 100 | 0 to 24 |
| COC(=O)c1c(OC)nc(C(F)(F)F)c(C(=O)NNC(C)=O)c1CC(C)C [Compound 100, 3,5-pyridinedicarboxylic acid, 2-methoxy-4-(2-methylpropyl)-6-(trifluoromethyl)-, 3-methyl ester 5-(2-acetylhydrazide)] | 75 to 100 | 0 to 24 | 0 to 24 | 0 to 24 | 0 to 24 | 0 to 24 | 0 to 24 | 0 to 24 | 0 to 24 | 0 to 24 |
| COC(=O)c1c(OC)nc(C(F)(F)F)c(C(=O)n2cc([N+](=O)[O-])cn2)c1CC(C)C [Compound 101, 3-pyridinecarboxylic acid, 2-methoxy-4-(2-methylpropyl)-5-[(4-nitro-1H-pyrazo1-1-yl)carbonyl]-6-(trifluoromethyl)-, methyl ester] | 75 to 100 | 75 to 100 | 75 to 100 | 75 to 100 | 0 to 24 | 75 to 100 | 50 to 74 | 50 to 74 | 50 to 74 | 25 to 49 |
| COC(=O)c1c(OC)nc(C(F)(F)F)c(C(=O)n2ccc(F)n2)c1CC(C)C [Compound 102, 3-pyridinecarboxylic acid, 5-[(3-fluoro-1H-pyrazo1-1-yl)carbonyl]-2-methoxy-4-(2-methylpropyl)-6-(trifluoromethyl)-, methyl ester] | 75 to 100 | 75 to 100 | 75 to 100 | 75 to 100 | 75 to 100 | 75 to 100 | 75 to 100 | 75 to 100 | 75 to 100 | 75 to 100 |
| COC(=O)c1c(OC)nc(C(F)(F)F)c(C(=O)n2cc(Cl)cn2)c1CC(C)C [Compound 104] | 75 to 100 | 75 to 100 | 50 to 74 | 75 to 100 | 0 to 24 | 75 to 100 | 50 to 74 | 50 to 74 | 50 to 74 | 0 to 24 |
| COC(=O)c1c(OC)nc(C(F)(F)F)c(C(N)=O)c1CC(C)C [Compound 105, 3-pyridinecarboxylic acid, 5-(aminocarbonyl)-2-methoxy-4-(2-methylpropyl)-6-(trifluoromethyl)-, methyl ester] | 75 to 100 | 0 to 24 | 25 to 49 | 75 to 100 | 0 to 24 | 75 to 100 | 0 to 24 | 0 to 24 | 0 to 24 | 0 to 24 |
